Experimental data published in PMC6010071, “Blocking oestradiol synthesis pathways with potent and selective coumarin derivatives” (Journal of Enzyme Inhibition and Medicinal Chemistry, 2018).

Key:
Type in all cases: biochemical
[1] = molecular target: T1, heterologously expressed human CYP1A2 enzyme (Homo sapiens, UniProt P05177); experiment: CYP1A2 inhibition; conditions: read-out: CYP1A2 inhibition ∼ pIC50 (converted)
T1 construct: purchased Corning Inc., Corning, NY
T1 sequence (P05177 1-516): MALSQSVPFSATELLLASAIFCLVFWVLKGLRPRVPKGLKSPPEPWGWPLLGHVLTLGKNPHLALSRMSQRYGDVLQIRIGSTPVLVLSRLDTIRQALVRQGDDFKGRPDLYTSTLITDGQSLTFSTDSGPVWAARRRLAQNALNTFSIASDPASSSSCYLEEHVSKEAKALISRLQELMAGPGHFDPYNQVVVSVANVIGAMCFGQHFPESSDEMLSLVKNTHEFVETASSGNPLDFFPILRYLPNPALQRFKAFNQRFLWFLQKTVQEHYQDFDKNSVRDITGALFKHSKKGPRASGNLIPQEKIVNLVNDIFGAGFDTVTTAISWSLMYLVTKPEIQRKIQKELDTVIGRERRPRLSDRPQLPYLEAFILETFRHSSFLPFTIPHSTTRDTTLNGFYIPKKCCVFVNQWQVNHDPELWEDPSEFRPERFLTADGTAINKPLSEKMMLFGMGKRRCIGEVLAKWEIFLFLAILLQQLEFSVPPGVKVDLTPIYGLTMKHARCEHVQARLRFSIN
Procedure: Inhibition of CYP1A2 activity was determined using commercial heterologously expressed human CYP1A2 enzyme (Corning Inc., Corning, NY) essentially as described previously.

[2] = molecular target: T2, recombinant human HSD1 (Homo sapiens, UniProt P14061); experiment: HSD1 inhibition, HPLC assay of [3H]-E1 to [3H]-E2 conversion
T2 construct: made in house; host or cells: Sf9 insect cells
T2 sequence (P14061 1-328): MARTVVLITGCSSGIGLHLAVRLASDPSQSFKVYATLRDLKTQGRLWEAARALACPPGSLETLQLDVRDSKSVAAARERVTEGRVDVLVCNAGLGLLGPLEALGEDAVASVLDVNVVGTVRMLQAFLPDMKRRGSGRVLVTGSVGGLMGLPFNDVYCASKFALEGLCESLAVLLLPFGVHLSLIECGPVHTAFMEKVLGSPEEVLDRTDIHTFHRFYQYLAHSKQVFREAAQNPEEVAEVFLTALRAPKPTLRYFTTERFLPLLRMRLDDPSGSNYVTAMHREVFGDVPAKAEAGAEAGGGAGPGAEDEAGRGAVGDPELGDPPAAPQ
Procedure: The inhibition was determined by HPLC using recombinant human HSD1 and HSD2 proteins as described in a prior study. In short, recombinant human HSD1 and HSD2 were produced in Sf9-insect cells. […] After incubation, the reaction was stopped by addition of […] 10% trichloroacetic acid per sample. […] The ratio of [3H]-E1 converted to [3H]-E2 or vice versa determines the conversion percentage of the samples. Inhibition was measured in three concentrations (100 nM, 1, and 5 µM) in order to follow the progression of inhibition efficiencies. Inhibition efficiencies of the tested inhibitors were calculated by comparing the conversion percentages of the samples including inhibitors with those of conversion controls (without inhibitors).

[3] = molecular target: T3, Aromatase (CYP19A1), human placental microsomes (Homo sapiens, UniProt P11511); experiment: Aromatase activity, [3H]-H2O release from [3H]-androstenedione; conditions: 50 nM [3H]-androstenedione; inhibitor 60–1000 nM; read-out: Aromatase inhibition ∼ pIC50 (converted)
T3 construct: by using human placental microsomes; from tissue; host or cells: human placental microsomes
T3 sequence (P11511 1-503): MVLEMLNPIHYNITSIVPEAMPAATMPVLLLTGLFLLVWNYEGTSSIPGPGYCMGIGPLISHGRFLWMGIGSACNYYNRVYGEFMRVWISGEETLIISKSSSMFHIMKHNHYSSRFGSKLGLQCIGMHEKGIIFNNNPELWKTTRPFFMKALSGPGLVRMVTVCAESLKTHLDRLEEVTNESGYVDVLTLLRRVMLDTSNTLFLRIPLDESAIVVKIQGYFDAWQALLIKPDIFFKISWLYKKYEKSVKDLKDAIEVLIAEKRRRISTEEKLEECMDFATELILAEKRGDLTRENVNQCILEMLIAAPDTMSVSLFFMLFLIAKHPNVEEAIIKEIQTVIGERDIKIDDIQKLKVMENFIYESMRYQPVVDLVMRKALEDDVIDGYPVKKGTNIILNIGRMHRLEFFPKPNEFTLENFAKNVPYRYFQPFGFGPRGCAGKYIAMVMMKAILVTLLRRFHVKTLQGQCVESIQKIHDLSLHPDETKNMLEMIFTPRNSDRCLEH
Procedure: Aromatase (CYP19A1) activity was measured as described previously[22] by using human placental microsomes and 50 nM [3H]-androstenedione as a substrate and inhibitor concentrations in the range of 60–1000 nM. Aromatase activities were measured as released [3H]-H2O in Optiphase Hisafe 2 scintillation liquid (Perkin Elmer, Waltham, MA) with a Wallac 1450 MicroBeta Trilux scintillation counter (Perkin Elmer, Waltham, MA). As a positive control for aromatase inhibition, 1 µM finrozole (generous gift from Olavi Pelkonen, University of Oulu, Finland) was used.

[4] = molecular target: T4, MAO-B (Homo sapiens, UniProt P27338); experiment: MAO-B inhibition, continuous spectrophotometric assay
T4 construct: purchased Sigma-Aldrich (St. Louis, MO)
T4 sequence (P27338 1-520): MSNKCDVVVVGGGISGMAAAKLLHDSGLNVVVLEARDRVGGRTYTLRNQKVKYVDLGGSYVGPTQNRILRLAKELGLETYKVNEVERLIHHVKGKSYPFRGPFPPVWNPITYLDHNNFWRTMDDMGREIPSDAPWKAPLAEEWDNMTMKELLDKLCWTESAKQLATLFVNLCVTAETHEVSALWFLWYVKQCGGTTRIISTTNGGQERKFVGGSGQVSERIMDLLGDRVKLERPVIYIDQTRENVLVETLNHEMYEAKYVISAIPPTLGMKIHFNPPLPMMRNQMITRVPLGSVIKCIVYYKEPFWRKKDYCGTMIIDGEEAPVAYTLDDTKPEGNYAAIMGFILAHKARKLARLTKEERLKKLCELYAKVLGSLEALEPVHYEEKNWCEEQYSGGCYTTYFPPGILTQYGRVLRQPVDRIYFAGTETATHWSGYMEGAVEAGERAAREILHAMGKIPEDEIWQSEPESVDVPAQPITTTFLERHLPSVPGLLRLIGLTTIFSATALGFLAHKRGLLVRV
Procedure: The protocol of continuous spectrophotometric assay by Holt et al. was first used to determine the activity of the proteins. […] The protein was first incubated for 30 min at 37 °C in the chromogenic solution and then the substrate tyramine was introduced at 0.5 mM final plate concentration completing the assay volume. […] The assay should produce absorbance change of ∼0.35[23]. […] These protein concentrations were selected to be used to analyse the molecules 1–9. The analysis conditions followed the above-described assay protocol[23] and the activity of tested molecules was measured at 100 µM for MAO-A and at 10 µM for MAO-B. The analysis was performed as single point measurements and the signal was read by the same instrument at the expected assay maximum indicated by the activity measurements, at 30 min for MAO-A and at 2 h for MAO-B, respectively. […] The observed activity was calculated as inhibition percentage (Table 1).

[5] = molecular target: T5, recombinant human HSD2 (Homo sapiens, UniProt P37059); experiment: HSD2 inhibition, HPLC assay of [3H]-E2 to [3H]-E1 conversion
T5 construct: made in house; host or cells: Sf9 insect cells
T5 sequence (P37059 1-387): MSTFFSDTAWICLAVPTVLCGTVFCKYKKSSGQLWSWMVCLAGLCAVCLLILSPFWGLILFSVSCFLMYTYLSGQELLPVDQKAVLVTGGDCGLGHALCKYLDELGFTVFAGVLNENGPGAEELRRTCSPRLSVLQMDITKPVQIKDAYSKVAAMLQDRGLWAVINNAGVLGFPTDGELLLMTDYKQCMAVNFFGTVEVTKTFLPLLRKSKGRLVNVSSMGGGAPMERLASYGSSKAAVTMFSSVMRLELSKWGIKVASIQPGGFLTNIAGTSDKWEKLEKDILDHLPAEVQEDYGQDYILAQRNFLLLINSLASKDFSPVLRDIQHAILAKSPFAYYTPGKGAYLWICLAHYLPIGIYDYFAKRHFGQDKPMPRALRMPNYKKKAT
Procedure: The inhibition was determined by HPLC using recombinant human HSD1 and HSD2 proteins as described in a prior study. In short, recombinant human HSD1 and HSD2 were produced in Sf9-insect cells. […]. After incubation, the reaction was stopped by addition of […] 10% trichloroacetic acid per sample. After incubation the substrate and the product of enzymatic conversion [3H]-E1 and [3H]-E2 were separated and quantified by HPLC (Alliance 2790, Waters, Milford, MA) connected to an online counter (Packard Flow Scintillation Analyser; Perkin Elmer Inc., Waltham, […]). The ratio of [3H]-E1 converted to [3H]-E2 or vice versa determines the conversion percentage of the samples. Inhibition was measured in three concentrations (100 nM, 1, and 5 µM) in order to follow the progression of inhibition efficiencies. Inhibition efficiencies of the tested inhibitors were calculated by comparing the conversion percentages of the samples including inhibitors with those of conversion controls (without inhibitors).

IC50 [1] [nM] | HSD1 inhibition (in words) [2] | inhibition at 0.1 µM ([2]; 100 nM, average of two measurements, except for compounds 8 and 9, read-out: HSD1 inhibition at 100 nM) [%] | inhibition at 1 µM ([2]; 1 µM, average of three measurements, except for compounds 8 and 9, read-out: HSD1 inhibition at 1 µM) [%] | IC50 ([2]; estimated from three measurements at 1 µM, average ± standard error, read-out: HSD1 inhibition ∼ pIC50 (converted)) [nM] | IC50 [3] [nM] | MAO-B inhibition (in words) [4] | inhibition at 10 µM ([4]; 10 µM, single point, read at 2 h, read-out: MAO-B inhibition at 10 µM) [%] | inhibition at 0.1 µM ([5]; 100 nM, control) [%] | inhibition at 1 µM ([5]; read-out: HSD2 inhibition at 1 µM) [%] | Structure (SMILES)
115 | blocking neither HSD1 nor MAO-B | 1 | 1 | > 5010 | 77.6 | blocking neither HSD1 nor MAO-B | 11 | – | – | O=c1oc2ccccc2cc1-n1ccnc1 [Compound 10, 3–(1H-imidazol-1-yl)-2H-chromen-2-one]
– | – | – | – | – | – | – | – | 62.3 | 100 | O=c1c(Oc2ccc(Cl)cc2)coc2cc(O)cc(O)c12 [HM2001, 3–(4-Chlorophenoxy)-5,7-dihydroxychromen-4-one, reference compound]
